Reference: PubChem BioAssay AID1963986 (Molecular Pharmacology Branch, DTP, NCI, 2024)
pIC50: −log10 of the molar value.

Tested on: 171881-019-R-J1-PDC tumor spheroid viability
Test: Anticancer human tumor 171881-019-R-J1-PDC patient-derived invasive breast carcinoma cell line growth inhibition [PI3K]
Conditions: spheroids with HUVEC and MSC; for pIC50: curve of first compound; for viability, T/C: stronger effect = lower value
In short: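 Tumor cells were combined with HUVEC and MSCs into spheroids, then dosed with PI3K-inhibitor combinations over half-log ranges capped near clinical Cmax or 10 microM.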

[1] = second compound 0.00316 µM, first compound 0.0316 µM
[2] = second compound 0.00316 µM, first compound 0.1 µM
[3] = second compound 0.00316 µM, first compound 0.316 µM
[4] = second compound 0.00316 µM, first compound 1 µM
[5] = second compound 0.00316 µM, first compound 3.16 µM
[6] = second compound 0.00316 µM, first compound 10 µM
[7] = second compound 0.01 µM, first compound 0.0316 µM
[8] = second compound 0.01 µM, first compound 0.1 µM
[9] = second compound 0.01 µM, first compound 0.316 µM
[10] = second compound 0.01 µM, first compound 1 µM
[11] = second compound 0.01 µM, first compound 3.16 µM
[12] = second compound 0.01 µM, first compound 10 µM
[13] = second compound 0.0316 µM, first compound 0.0316 µM
[14] = second compound 0.0316 µM, first compound 0.1 µM
[15] = second compound 0.0316 µM, first compound 0.316 µM
[16] = second compound 0.0316 µM, first compound 1 µM
[17] = second compound 0.0316 µM, first compound 3.16 µM
[18] = second compound 0.0316 µM, first compound 10 µM
[19] = second compound 0.1 µM, first compound 0.0316 µM
[20] = second compound 0.1 µM, first compound 0.1 µM
[21] = second compound 0.1 µM, first compound 0.316 µM
[22] = second compound 0.1 µM, first compound 1 µM
[23] = second compound 0.1 µM, first compound 3.16 µM
[24] = second compound 0.1 µM, first compound 10 µM
[25] = second compound 0.316 µM, first compound 0.0316 µM
[26] = second compound 0.316 µM, first compound 0.1 µM
[27] = second compound 0.316 µM, first compound 0.316 µM
[28] = second compound 0.316 µM, first compound 1 µM
[29] = second compound 0.316 µM, first compound 3.16 µM
[30] = second compound 0.316 µM, first compound 10 µM
[31] = second compound 1 µM, first compound 0.0316 µM
[32] = second compound 1 µM, first compound 0.1 µM
[33] = second compound 1 µM, first compound 0.316 µM
[34] = second compound 1 µM, first compound 1 µM
[35] = second compound 1 µM, first compound 3.16 µM
[36] = second compound 1 µM, first compound 10 µM
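Also: spheroids exposed to compound for 7 days before viability read.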
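For viability, T/C in this document: 100% = DMSO vehicle-treated spheroids.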

C=CC(=O)N1CCN(c2nc(=O)n(-c3c(C)ccnc3C(C)C)c3nc(-c4c(O)cccc4F)c(F)cc23)C(C)C1 (stereo unspecified) + CC(Nc1ccc2c(c1)OCCn1cc(N3C(=O)OCC3C(F)F)nc1-2)C(N)=O
pIC50 (second compound 0.00316 µM): 5.04 | pIC50 (second compound 0.01 µM): 5.14 | pIC50 (second compound 0.0316 µM): 5.40 | pIC50 (second compound 0.1 µM): > 7.50 | pIC50 (second compound 0.316 µM): > 7.50 | pIC50 (second compound 1 µM): > 7.50 | viability, T/C [1]: 96.8% | viability, T/C [2]: 90.1% | viability, T/C [3]: 92.8% | viability, T/C [4]: 93.1% | viability, T/C [5]: 88.5% | viability, T/C [6]: 46.6% | viability, T/C [7]: 79.5% | viability, T/C [8]: 84.9% | viability, T/C [9]: 78.5% | viability, T/C [10]: 84.6% | viability, T/C [11]: 79% | viability, T/C [12]: 39.1% | viability, T/C [13]: 52.7% | viability, T/C [14]: 56.2% | viability, T/C [15]: 52.1% | viability, T/C [16]: 57.7% | viability, T/C [17]: 54.7% | viability, T/C [18]: 31.7% | viability, T/C [19]: 37.6% | viability, T/C [20]: 37.8% | viability, T/C [21]: 40.2% | viability, T/C [22]: 36.3% | viability, T/C [23]: 39.2% | viability, T/C [24]: 22.1% | viability, T/C [25]: 26.1% | viability, T/C [26]: 29.2% | viability, T/C [27]: 27.8% | viability, T/C [28]: 30% | viability, T/C [29]: 26.7% | viability, T/C [30]: 12.6% | viability, T/C [31]: 20.2% | viability, T/C [32]: 21.7% | viability, T/C [33]: 20.7% | viability, T/C [34]: 22.6% | viability, T/C [35]: 20.7% | viability, T/C [36]: 10.7%

CC(Cn1ccc(-c2ccc(C#N)c(Cl)c2)n1)NC(=O)c1cc(C(C)O)[nH]n1 (stereo unspecified) + CC(Nc1ccc2c(c1)OCCn1cc(N3C(=O)OCC3C(F)F)nc1-2)C(N)=O
pIC50 (second compound 0.00316 µM): < 5.00 | pIC50 (second compound 0.01 µM): < 5.00 | pIC50 (second compound 0.0316 µM): 5.38 | pIC50 (second compound 0.1 µM): > 7.50 | pIC50 (second compound 0.316 µM): > 7.50 | pIC50 (second compound 1 µM): > 7.50 | viability, T/C [1]: 74.5% | viability, T/C [2]: 85% | viability, T/C [3]: 92% | viability, T/C [4]: 93.9% | viability, T/C [5]: 88.5% | viability, T/C [6]: 54.3% | viability, T/C [7]: 75.1% | viability, T/C [8]: 80.9% | viability, T/C [9]: 78.6% | viability, T/C [10]: 80.5% | viability, T/C [11]: 83.4% | viability, T/C [12]: 57.7% | viability, T/C [13]: 50.2% | viability, T/C [14]: 57.4% | viability, T/C [15]: 54.4% | viability, T/C [16]: 53.7% | viability, T/C [17]: 59.2% | viability, T/C [18]: 35.1% | viability, T/C [19]: 41.1% | viability, T/C [20]: 36.2% | viability, T/C [21]: 38.5% | viability, T/C [22]: 39.8% | viability, T/C [23]: 39% | viability, T/C [24]: 27.3% | viability, T/C [25]: 26.7% | viability, T/C [26]: 26.5% | viability, T/C [27]: 25.8% | viability, T/C [28]: 27% | viability, T/C [29]: 25.8% | viability, T/C [30]: 19.4% | viability, T/C [31]: 19.6% | viability, T/C [32]: 20.6% | viability, T/C [33]: 19.7% | viability, T/C [34]: 20.8% | viability, T/C [35]: 19.1% | viability, T/C [36]: 14.3%

Cn1nccc1Nc1nccc(-c2ccn(C(CO)c3ccc(Cl)c(F)c3)c(=O)c2)n1 (stereo unspecified) + CC(Nc1ccc2c(c1)OCCn1cc(N3C(=O)OCC3C(F)F)nc1-2)C(N)=O
pIC50 (second compound 0.00316 µM): 6.58 | pIC50 (second compound 0.01 µM): 6.95 | pIC50 (second compound 0.0316 µM): > 7.50 | pIC50 (second compound 0.1 µM): > 7.50 | pIC50 (second compound 0.316 µM): > 7.50 | pIC50 (second compound 1 µM): > 7.50 | viability, T/C [1]: 92.5% | viability, T/C [2]: 67.2% | viability, T/C [3]: 46.7% | viability, T/C [4]: 33.7% | viability, T/C [5]: 22% | viability, T/C [6]: 19.2% | viability, T/C [7]: 69.6% | viability, T/C [8]: 53.9% | viability, T/C [9]: 30.6% | viability, T/C [10]: 27.4% | viability, T/C [11]: 18.2% | viability, T/C [12]: 15% | viability, T/C [13]: 47.4% | viability, T/C [14]: 37.9% | viability, T/C [15]: 23.1% | viability, T/C [16]: 17.1% | viability, T/C [17]: 11.8% | viability, T/C [18]: 9.67% | viability, T/C [19]: 33.5% | viability, T/C [20]: 23.3% | viability, T/C [21]: 15.9% | viability, T/C [22]: 9.87% | viability, T/C [23]: 7.9% | viability, T/C [24]: 5.46% | viability, T/C [25]: 21.6% | viability, T/C [26]: 16.9% | viability, T/C [27]: 10.6% | viability, T/C [28]: 6.63% | viability, T/C [29]: 4.45% | viability, T/C [30]: 2.82% | viability, T/C [31]: 18.3% | viability, T/C [32]: 13.9% | viability, T/C [33]: 7.66% | viability, T/C [34]: 4.72% | viability, T/C [35]: 3.76% | viability, T/C [36]: 2.26%
